How the values were obtained:
[1] = molecular target: Serine/threonine-protein kinase 17A (Homo sapiens) (UniProt Q9UEE5); conditions: Compound concentration 1000.0 nM
[2] = molecular target: Tyrosine-protein kinase JAK1 (Homo sapiens) (UniProt P23458); conditions: Compound concentration 1000.0 nM
[3] = molecular target: Dual specificity tyrosine-phosphorylation-regulated kinase 1A (Homo sapiens) (UniProt Q13627); conditions: Compound concentration 1000.0 nM
[4] = molecular target: Inhibitor of nuclear factor kappa-B kinase subunit epsilon (Homo sapiens) (UniProt Q14164); conditions: Compound concentration 1000.0 nM
[5] = molecular target: Mitogen-activated protein kinase kinase kinase kinase 2 (Homo sapiens) (UniProt Q12851); conditions: Compound concentration 1000.0 nM
[6] = molecular target: High affinity nerve growth factor receptor (Homo sapiens) (UniProt P04629); conditions: Compound concentration 1000.0 nM
[7] = molecular target: Serine/threonine-protein kinase 4 (Homo sapiens) (UniProt Q13043); conditions: Compound concentration 1000.0 nM
[8] = molecular target: Serine/threonine-protein kinase Nek5 (Homo sapiens) (UniProt Q6P3R8); conditions: Compound concentration 1000.0 nM
[9] = molecular target: Ankyrin repeat and protein kinase domain-containing protein 1 (Homo sapiens) (UniProt Q8NFD2); conditions: Compound concentration 1000.0 nM
[10] = molecular target: Transient receptor potential cation channel subfamily M member 6 (Homo sapiens) (UniProt Q9BX84); conditions: Compound concentration 1000.0 nM
[11] = molecular target: Serine/threonine-protein kinase RIO1 (Homo sapiens) (UniProt Q9BRS2); conditions: Compound concentration 1000.0 nM
[12] = molecular target: Tyrosine-protein kinase Fes/Fps (Homo sapiens) (UniProt P07332); conditions: Compound concentration 1000.0 nM
[13] = molecular target: Calcium-dependent protein kinase 1 (Plasmodium falciparum) (UniProt P62344); conditions: Compound concentration 1000.0 nM
[14] = molecular target: Activin receptor type-2A (Homo sapiens) (UniProt P27037); conditions: Compound concentration 1000.0 nM
[15] = molecular target: Non-receptor tyrosine-protein kinase TNK1 (Homo sapiens) (UniProt Q13470); conditions: Compound concentration 1000.0 nM
[16] = molecular target: Activin receptor type-2B (Homo sapiens) (UniProt Q13705); conditions: Compound concentration 1000.0 nM
[17] = molecular target: Cyclin-dependent kinase 11A (Homo sapiens) (UniProt Q9UQ88); conditions: Compound concentration 1000.0 nM
[18] = molecular target: Casein kinase I isoform gamma-1 (Homo sapiens) (UniProt Q9HCP0); conditions: Compound concentration 1000.0 nM
[19] = system: Phosphatidylinositol 4,5-bisphosphate 3-kinase catalytic subunit alpha isoform (Homo sapiens), P42336 [H1047L]; conditions: Compound concentration 1000.0 nM
[20] = molecular target: Phosphatidylinositol 4,5-bisphosphate 3-kinase catalytic subunit alpha isoform (Homo sapiens) (UniProt P42336); conditions: Compound concentration 1000.0 nM
[21] = molecular target: Ribosomal protein S6 kinase alpha-5 (Homo sapiens) (UniProt O75582); conditions: Compound concentration 1000.0 nM
[22] = molecular target: Serine/threonine-protein kinase 26 (Homo sapiens) (UniProt Q9P289); conditions: Compound concentration 1000.0 nM
[23] = molecular target: Rhodopsin kinase GRK1 (Homo sapiens) (UniProt Q15835); conditions: Compound concentration 1000.0 nM
[24] = molecular target: Dual specificity protein kinase CLK4 (Homo sapiens) (UniProt Q9HAZ1); conditions: Compound concentration 1000.0 nM
[25] = molecular target: Serine/threonine-protein kinase RIO3 (Homo sapiens) (UniProt O14730); conditions: Compound concentration 1000.0 nM
[26] = molecular target: SRSF protein kinase 2 (Homo sapiens) (UniProt P78362); conditions: Compound concentration 1000.0 nM
[27] = molecular target: Receptor-interacting serine/threonine-protein kinase 1 (Homo sapiens) (UniProt Q13546); conditions: Compound concentration 1000.0 nM
[28] = molecular target: Mitogen-activated protein kinase 3 (Homo sapiens) (UniProt P27361); conditions: Compound concentration 1000.0 nM
[29] = molecular target: Alpha-1D adrenergic receptor (Homo sapiens) (UniProt P25100); conditions: Compound concentration 10.0 uM
[30] = molecular target: Tyrosine-protein kinase Lyn (Homo sapiens) (UniProt P07948); conditions: Compound concentration 1000.0 nM
[31] = molecular target: 5-hydroxytryptamine receptor 5A (Homo sapiens) (UniProt P47898); conditions: Compound concentration 10.0 uM
[32] = molecular target: Casein kinase I isoform alpha (Homo sapiens) (UniProt P48729); conditions: Compound concentration 1000.0 nM
[33] = molecular target: G protein-coupled receptor kinase 4 (Homo sapiens) (UniProt P32298); conditions: Compound concentration 1000.0 nM
[34] = molecular target: Serine/threonine-protein kinase PknB (Mycobacterium tuberculosis) (UniProt P9WI81); conditions: Compound concentration 1000.0 nM
[35] = molecular target: Muscle, skeletal receptor tyrosine-protein kinase (Homo sapiens) (UniProt O15146); conditions: Compound concentration 1000.0 nM
[36] = molecular target: Mitogen-activated protein kinase kinase kinase 20 (Homo sapiens) (UniProt Q9NYL2); conditions: Compound concentration 1000.0 nM
[37] = molecular target: Serine/threonine-protein kinase SIK2 (Homo sapiens) (UniProt Q9H0K1); conditions: Compound concentration 1000.0 nM
[38] = molecular target: Serine/threonine-protein kinase PLK4 (Homo sapiens) (UniProt O00444); conditions: Compound concentration 1000.0 nM
[39] = molecular target: Receptor-interacting serine/threonine-protein kinase 4 (Homo sapiens) (UniProt P57078); conditions: Compound concentration 1000.0 nM
[40] = molecular target: Maternal embryonic leucine zipper kinase (Homo sapiens) (UniProt Q14680); conditions: Compound concentration 1000.0 nM
[41] = system: Tyrosine-protein kinase ABL1 (Homo sapiens), P00519 [H396P]; conditions: Compound concentration 1000.0 nM
[42] = molecular target: Citron Rho-interacting kinase (Homo sapiens) (UniProt O14578); conditions: Compound concentration 1000.0 nM
[43] = molecular target: Serine/threonine-protein kinase D2 (Homo sapiens) (UniProt Q9BZL6); conditions: Compound concentration 1000.0 nM
[44] = molecular target: Dual specificity tyrosine-phosphorylation-regulated kinase 1B (Homo sapiens) (UniProt Q9Y463); conditions: Compound concentration 1000.0 nM
[45] = molecular target: Receptor-interacting serine/threonine-protein kinase 2 (Homo sapiens) (UniProt O43353); conditions: Compound concentration 1000.0 nM
Receptor-interacting serine/threonine-protein kinase 2 (Homo sapiens), sequence (O43353 whole entry): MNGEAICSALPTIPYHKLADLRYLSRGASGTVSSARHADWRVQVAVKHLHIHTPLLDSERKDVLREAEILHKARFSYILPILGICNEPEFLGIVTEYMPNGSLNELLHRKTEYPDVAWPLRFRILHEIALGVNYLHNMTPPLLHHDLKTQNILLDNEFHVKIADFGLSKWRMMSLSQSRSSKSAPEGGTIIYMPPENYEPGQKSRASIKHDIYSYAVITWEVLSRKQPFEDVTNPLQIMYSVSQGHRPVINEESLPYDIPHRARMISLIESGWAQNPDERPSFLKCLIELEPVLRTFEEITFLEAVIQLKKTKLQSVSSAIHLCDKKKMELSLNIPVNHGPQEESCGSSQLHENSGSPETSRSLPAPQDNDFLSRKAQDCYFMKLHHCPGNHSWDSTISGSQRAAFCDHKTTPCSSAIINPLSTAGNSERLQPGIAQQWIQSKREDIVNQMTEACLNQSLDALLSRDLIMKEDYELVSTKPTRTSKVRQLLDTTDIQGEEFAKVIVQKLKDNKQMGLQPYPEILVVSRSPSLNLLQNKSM

5-hydroxytryptamine receptor 5A (Homo sapiens), sequence (P47898 whole entry, canonical isoform): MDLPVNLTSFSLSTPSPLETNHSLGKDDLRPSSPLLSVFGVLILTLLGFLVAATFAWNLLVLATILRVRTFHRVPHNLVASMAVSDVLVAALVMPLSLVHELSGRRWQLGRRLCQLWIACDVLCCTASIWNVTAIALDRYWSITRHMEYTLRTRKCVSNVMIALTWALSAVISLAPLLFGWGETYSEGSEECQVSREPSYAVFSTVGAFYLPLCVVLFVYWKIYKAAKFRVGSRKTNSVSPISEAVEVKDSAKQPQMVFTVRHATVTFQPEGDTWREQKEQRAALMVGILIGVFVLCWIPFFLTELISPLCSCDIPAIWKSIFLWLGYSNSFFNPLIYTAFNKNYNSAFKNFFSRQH
Serine/threonine-protein kinase PLK4 (Homo sapiens), sequence (O00444 whole entry): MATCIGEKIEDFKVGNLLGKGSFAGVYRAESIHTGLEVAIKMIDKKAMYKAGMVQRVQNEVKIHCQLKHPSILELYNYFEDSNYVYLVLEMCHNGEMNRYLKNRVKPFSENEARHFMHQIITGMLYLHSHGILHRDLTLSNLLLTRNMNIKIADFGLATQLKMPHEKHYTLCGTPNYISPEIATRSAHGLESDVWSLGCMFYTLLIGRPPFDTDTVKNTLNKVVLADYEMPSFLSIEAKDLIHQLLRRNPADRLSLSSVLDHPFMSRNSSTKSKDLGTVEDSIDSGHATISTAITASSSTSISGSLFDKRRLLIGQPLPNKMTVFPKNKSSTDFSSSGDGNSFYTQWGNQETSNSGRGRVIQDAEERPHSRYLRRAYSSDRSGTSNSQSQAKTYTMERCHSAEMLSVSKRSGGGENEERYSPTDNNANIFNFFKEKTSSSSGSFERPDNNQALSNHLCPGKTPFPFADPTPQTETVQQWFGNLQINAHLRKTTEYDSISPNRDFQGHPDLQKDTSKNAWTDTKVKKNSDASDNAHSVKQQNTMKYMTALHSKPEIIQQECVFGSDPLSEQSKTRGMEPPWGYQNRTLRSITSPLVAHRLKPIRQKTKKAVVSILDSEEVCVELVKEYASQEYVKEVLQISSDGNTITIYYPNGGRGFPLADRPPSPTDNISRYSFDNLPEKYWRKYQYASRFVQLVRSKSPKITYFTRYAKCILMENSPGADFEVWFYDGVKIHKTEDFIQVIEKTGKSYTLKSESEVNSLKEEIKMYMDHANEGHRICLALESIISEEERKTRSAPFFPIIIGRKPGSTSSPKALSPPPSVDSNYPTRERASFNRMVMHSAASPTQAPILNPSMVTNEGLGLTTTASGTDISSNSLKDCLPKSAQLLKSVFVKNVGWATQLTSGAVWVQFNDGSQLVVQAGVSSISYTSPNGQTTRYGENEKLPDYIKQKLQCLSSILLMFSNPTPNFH
Dual specificity protein kinase CLK4 (Homo sapiens), sequence (Q9HAZ1 whole entry, looked up): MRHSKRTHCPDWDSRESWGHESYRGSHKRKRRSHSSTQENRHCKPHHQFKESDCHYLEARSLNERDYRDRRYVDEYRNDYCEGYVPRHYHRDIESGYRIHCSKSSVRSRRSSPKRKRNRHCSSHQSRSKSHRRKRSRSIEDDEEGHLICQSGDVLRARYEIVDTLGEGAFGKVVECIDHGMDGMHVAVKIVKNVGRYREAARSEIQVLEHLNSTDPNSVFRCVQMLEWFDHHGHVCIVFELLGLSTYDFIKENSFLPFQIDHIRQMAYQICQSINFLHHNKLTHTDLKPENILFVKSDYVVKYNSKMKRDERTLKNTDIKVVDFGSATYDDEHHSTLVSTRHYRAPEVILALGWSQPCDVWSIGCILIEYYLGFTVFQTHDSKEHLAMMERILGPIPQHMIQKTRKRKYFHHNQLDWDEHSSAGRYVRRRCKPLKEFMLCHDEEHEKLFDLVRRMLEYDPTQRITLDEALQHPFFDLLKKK
Serine/threonine-protein kinase SIK2 (Homo sapiens), sequence (Q9H0K1 whole entry, looked up): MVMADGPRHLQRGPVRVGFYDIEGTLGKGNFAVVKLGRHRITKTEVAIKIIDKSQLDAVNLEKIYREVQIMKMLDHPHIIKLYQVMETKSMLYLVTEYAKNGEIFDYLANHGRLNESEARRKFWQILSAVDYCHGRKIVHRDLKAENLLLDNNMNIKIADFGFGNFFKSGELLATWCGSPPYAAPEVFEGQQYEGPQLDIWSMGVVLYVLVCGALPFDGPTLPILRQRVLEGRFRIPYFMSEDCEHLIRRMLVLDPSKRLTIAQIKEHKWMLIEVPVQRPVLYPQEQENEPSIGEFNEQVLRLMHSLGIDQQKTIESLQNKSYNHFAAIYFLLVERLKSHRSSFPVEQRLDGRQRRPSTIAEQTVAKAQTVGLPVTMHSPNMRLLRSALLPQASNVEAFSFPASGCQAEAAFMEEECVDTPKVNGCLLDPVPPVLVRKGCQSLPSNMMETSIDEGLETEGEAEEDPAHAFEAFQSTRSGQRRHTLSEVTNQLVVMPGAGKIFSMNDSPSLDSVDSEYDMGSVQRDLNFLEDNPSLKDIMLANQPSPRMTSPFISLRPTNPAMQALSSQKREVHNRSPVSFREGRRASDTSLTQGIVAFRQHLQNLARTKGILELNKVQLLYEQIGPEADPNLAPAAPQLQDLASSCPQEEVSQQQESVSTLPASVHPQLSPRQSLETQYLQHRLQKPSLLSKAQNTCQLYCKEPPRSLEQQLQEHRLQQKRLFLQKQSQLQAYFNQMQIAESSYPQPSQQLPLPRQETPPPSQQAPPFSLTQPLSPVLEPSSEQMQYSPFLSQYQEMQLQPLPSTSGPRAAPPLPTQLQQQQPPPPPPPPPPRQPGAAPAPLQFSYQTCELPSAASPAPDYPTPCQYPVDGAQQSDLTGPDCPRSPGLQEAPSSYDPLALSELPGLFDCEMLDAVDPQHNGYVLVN
Muscle, skeletal receptor tyrosine-protein kinase (Homo sapiens), sequence (O15146 whole entry): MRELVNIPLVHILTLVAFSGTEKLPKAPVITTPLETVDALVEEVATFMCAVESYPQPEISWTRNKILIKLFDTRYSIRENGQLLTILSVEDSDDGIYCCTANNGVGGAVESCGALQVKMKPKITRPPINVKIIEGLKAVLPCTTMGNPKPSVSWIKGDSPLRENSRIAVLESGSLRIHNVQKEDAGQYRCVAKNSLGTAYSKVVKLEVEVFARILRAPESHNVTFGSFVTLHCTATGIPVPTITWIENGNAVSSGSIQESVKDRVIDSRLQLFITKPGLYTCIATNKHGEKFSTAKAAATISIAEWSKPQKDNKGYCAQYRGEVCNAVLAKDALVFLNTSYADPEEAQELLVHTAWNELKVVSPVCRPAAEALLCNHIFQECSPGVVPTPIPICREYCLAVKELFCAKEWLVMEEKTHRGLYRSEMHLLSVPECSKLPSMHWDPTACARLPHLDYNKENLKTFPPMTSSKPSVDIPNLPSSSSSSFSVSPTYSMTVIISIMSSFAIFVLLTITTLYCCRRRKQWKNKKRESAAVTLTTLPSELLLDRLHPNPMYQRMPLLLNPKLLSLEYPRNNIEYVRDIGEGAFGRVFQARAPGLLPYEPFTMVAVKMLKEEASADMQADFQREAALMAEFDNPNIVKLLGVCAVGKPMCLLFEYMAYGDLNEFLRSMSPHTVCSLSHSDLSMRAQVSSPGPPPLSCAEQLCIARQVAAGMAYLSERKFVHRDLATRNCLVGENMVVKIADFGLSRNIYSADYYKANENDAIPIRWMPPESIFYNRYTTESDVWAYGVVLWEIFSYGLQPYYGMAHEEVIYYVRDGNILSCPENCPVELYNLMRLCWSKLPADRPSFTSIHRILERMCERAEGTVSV
Maternal embryonic leucine zipper kinase (Homo sapiens), sequence (Q14680 whole entry, looked up): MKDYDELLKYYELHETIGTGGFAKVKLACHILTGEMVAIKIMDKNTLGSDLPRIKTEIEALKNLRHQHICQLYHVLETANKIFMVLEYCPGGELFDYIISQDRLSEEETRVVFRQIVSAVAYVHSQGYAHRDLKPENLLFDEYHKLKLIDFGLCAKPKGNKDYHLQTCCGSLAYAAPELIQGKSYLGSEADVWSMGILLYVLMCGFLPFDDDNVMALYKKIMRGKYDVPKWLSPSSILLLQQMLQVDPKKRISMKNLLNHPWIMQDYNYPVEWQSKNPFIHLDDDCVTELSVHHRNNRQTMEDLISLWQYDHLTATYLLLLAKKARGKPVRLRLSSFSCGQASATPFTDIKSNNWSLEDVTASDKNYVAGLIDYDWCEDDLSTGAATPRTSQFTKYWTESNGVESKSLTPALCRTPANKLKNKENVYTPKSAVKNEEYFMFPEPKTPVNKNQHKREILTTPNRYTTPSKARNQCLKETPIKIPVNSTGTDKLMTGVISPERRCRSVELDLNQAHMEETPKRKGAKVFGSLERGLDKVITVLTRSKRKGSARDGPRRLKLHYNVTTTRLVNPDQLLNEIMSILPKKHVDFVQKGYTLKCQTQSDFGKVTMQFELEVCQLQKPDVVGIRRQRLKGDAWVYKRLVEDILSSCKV

CN(C)CC#Cc1ccc(OCCCc2sc(N3CCc4cccc(C(=O)Nc5nc6ccccc6s5)c4C3)nc2C(=O)O)c(F)c1 [A-1155463]
inactive: residual activity [1] 85% | residual activity [2] 97% | residual activity [3] 88% | residual activity [4] 100% | residual activity [5] 100% | residual activity [6] 100% | residual activity [7] 100% | residual activity [8] 87% | residual activity [9] 69% | residual activity [10] 84% | residual activity [11] 91% | residual activity [12] 100% | residual activity [13] 100% | residual activity [14] 94% | residual activity [15] 98% | residual activity [16] 100% | residual activity [17] 100% | residual activity [18] 91% | residual activity [19] 68% | residual activity [20] 89% | residual activity [21] 83% | residual activity [22] 80% | residual activity [23] 95% | residual activity [24] 74% | residual activity [25] 86% | residual activity [26] 100% | residual activity [27] 92% | residual activity [28] 96% | inhibition [29] 1.52% | residual activity [30] 100% | inhibition [31] -3.1% | residual activity [32] 71% | residual activity [33] 100% | residual activity [34] 100% | residual activity [35] 84% | residual activity [36] 100% | residual activity [37] 96% | residual activity [38] 77% | residual activity [39] 100% | residual activity [40] 78% | residual activity [41] 100% | residual activity [42] 77% | residual activity [43] 84% | residual activity [44] 87% | residual activity [45] 100%
